{
  "source": "patent US20220242905A1",
  "about": "“MODIFIED PEPTIDES AND THEIR USE” (UNIVERSITE DE MONTPELLIER, priority 2018, published 2022)",
  "key": {"[1]": {"system": "Bacillus subtilis ATCC6633", "type": "cell-based", "details": "for Minimal inhibitory concentration (MIC) B. subtilis ATCC6633: ATCC6633, 24 h", "procedure": "(§1) Minimal inhibitory concentration (MIC) values and minimal bactericidal concentration (MBCs) values for ATC-peptides 1-9 were determined against both Gram-positive (Bacillus subtilis, Staphylococcus aureus, Enterococcus faecalis) and Gram negative (Escherichia coli, Pseudomonas aeruginosa) bacteria as well as a yeast (Candida albicans). Experiments were conducted in triplicate. For B. subtilis, compounds were tested against vegetative cells and spores, which are particularly resistant to the action of antimicrobial agents. MIC and MBCs values are shown Table 12. In addition, haemolytic properties of 1-9 were tested.\n(§2) the antimicrobial performances of oligomers antimicrobial activity were determined on three Gram positive strains (Bacillus subtilis ATCC6633, Staphylococcus aureus ATCC6538 and Enterococcus faecalis ATCC29121), two Gram negative strains (Escherichia coli ATCC8739 and Pseudomonas aeruginosa ATCC9027) and one fungal strain (Candida albicans ATCC10231). Each bacterial strain was allowed to grow overnight on Trypto-Caseine-Soja agar (TSA, Difco) at 37° C., C. albicans was allowed to grow 48 h on a sabouraud medium (Difco) at 20-25° C. A fresh suspension at 10^8 CFU·mL^−1 was then prepared by inoculating the micro-organisms in a Tryptone-Sel solution. Concentration was monitored by measuring transmitted light at 620 nm or with the Mac Farland turbidity standard (Mac Farland=0.5≈10^8 CFU·mL^−1). Each suspension was then diluted in a doubly strong Mueller-Hinton (MH, Difco) broth to […]. Two-fold serial dilutions (100 μL) of oligomers in sterile water (pH adjusted between 7.4 and 7.7 with HCl and NaOH solutions) were mixed with microbial inoculum (100 μL) in NUNC sterile clear polystyrene flat-bottom 96-well plates. A 1/1 v/v oligomer solution/water mixture was used a negative control and a 1/1 vv water/microbial inoculum mixture was used a positive control. Plates were then incubated 24 h at 37° C. for bacteria and 48 h at 25° C. for C. albicans. Minimum Inhibitory Concentration (MIC) was determined as the lowest concentration inhibiting the growth of each micro-organism. […] Minimum Bactericidal Concentration (MBC) was determined as the lowest concentration that prevent the growth of more than one colony. Each assay was performed in a triple duplicate for each strain."}, "[2]": {"system": "Staphylococcus aureus ATCC6538", "type": "cell-based", "details": "for Minimal inhibitory concentration (MIC) S. aureus ATCC6538: ATCC6538, 24 h", "procedure": "as §1, §2"}, "[3]": {"system": "Pseudomonas aeruginosa ATCC9027", "type": "cell-based", "details": "for Minimal inhibitory concentration (MIC) P. aeruginosa ATCC9027: ATCC9027, 24 h", "procedure": "as §1, §2"}, "[4]": {"system": "Escherichia coli ATCC8739", "type": "cell-based", "details": "for Minimal inhibitory concentration (MIC) E. coli ATCC8739: ATCC8739, 24 h", "procedure": "as §1, §2"}, "[5]": {"system": "Candida albicans ATCC10231", "type": "cell-based", "details": "for Minimal inhibitory concentration (MIC) C. albicans ATCC10231: ATCC10231, 48 h", "procedure": "as §1, §2"}, "[6]": {"system": "Enterococcus faecalis ATCC29121", "type": "cell-based", "details": "for Minimal inhibitory concentration (MIC) E. faecalis ATCC29121: ATCC29121, 24 h", "procedure": "as §1, §2"}, "[7]": {"system": "Human red blood cells (hRBCs)", "assay": "Hemolytic activity", "type": "cell-based", "details": "1 h at 37° C., printed in the HD50 column", "procedure": "(§3) Procedure for measurements of hemolytic activity: Human red blood cells (hRBCs) were washed multiple times with phosphate-buffered saline (PBS) until a clear supernatant was obtained. The hRBCs suspension was made in PBS with a Packed Cell Volume of 5%, Two-fold serial dilutions (50 μL) of oligomers in sterile water (pH adjusted between 7.4 and 7.7 with HCl and NaOH solutions) were mixed with hRBCs suspension (50 μL) in clear polystyrene optical-bottom 96-well plates which were filmed and incubated for 1 h at 37° C. A 1/1 vv hRBCs solution/PBS mixture was used a negative control and a 1/1 vv hRBCs solution/1% (TRIS 50 mM pH=8.0+1% SDS) mixture was used a positive control for 100% hemolysis. The mixture was then centrifuged at 1500 g for 10 min at 5° C. Next, 50 μL of the supernatant was transferred into a second plate, and the absorbance was read at 490 nm using a BioRad iMark plate reader. The hemolysis percentage was calculated by the formula % hemolysis=[Absorbance (sample)−Absorbance (negative control)]/[Absorbance (positive control)−Absorbance (negative control)]×100%. Each assay was performed in a double duplicate. Hemolytic activity was determined or estimated with the Hemolytic Concentration leading to 50% of lysis of hRBCs (HC50)."}, "Hemolytic activity": {"assay": "Hemolytic activity", "type": "cell-based, Human", "details": "human, human red blood cell suspension; hRBCs, 1 h at 37° C.; read-out: HD50, dose required to lyse 50% of the red blood cells", "procedure": "as §3"}, "E. coli [8]": {"system": "E. coli", "type": "cell-based, Escherichia coli", "details": "2 h", "procedure": "FIG. 17 represents a graphic showing the results of a time-kill study of oligomer 9 on E. coli over 2 h incubation at 37° C.\n(§4) Surface electron microscopy (SEM) experiments: oligomer 9 was evaluated for its impact on E. coli morphology by surface electron microscopy (SEM). In order to define the best incubation period to observed antimicrobial effects, time-kill study was conducted over 2 h incubation at 37° C. […] Significant decrease of the growth rate was observed between 40 to 60 min at 4× and 8×MIC. TEM experiments were performed after 60 min contact between bacteria cells and compound 9. […] In addition, whereas there were no fragments for control untreated bacteria, numerous spherical elements whose diameters were lower than 0.1 μm were observed around bacteria, the number of which increasing with the peptide concentration. Despite some dispersion in size, such fragments, probable microsomes, were classically reported with other AMPs associated with membrane permeation and/or depolarization. [M. Hartmann, M. Berditsch J. Hawecker, F. Ardakani, D. Gerthsen, A. S. Ulrich, Antimicrob. Agents Chemother. 2010, 54, 3132-3142 b/ E. Duval, C, Zatylny, M. Laurencin, M. Baudy-Floc'h, J. Henry, Peptides 2009, 30, 1608-1612.]"}, "E. coli [9]": {"system": "E. coli", "assay": "Surface electron microscopy (SEM) of bacterial morphology", "type": "cell-based, Escherichia coli", "details": "after 60 min incubation with 8×MIC; untreated about 2.0 μm", "procedure": "FIG. 18 represents electronic microscopy photos. A/, B/ and C/ SEM micrographs untreated E. coli on glass platelets. In isotonic medium the cells are long, intact and evenly shaped.\nFIG. 19 represents SEM micrographs untreated E. coli after 60 min incubation with 8×MIC of 9.\nas §4, with “1608-1612.] […]” for “1608-1612.]”"}, "[10]": {"details": "value in bracket, 24 h at 37° C."}},
  "note": "Like-named read-outs stand apart in the source and are kept apart here.",
  "data": [
    {"molecule": "CC(=O)N[C@@H](CCCCN)c1nc(C)sc1C(=O)N[C@@H](C)c1nc(C)sc1C(=O)N[C@@H](C)c1nc(CCCCN)sc1C(=O)N[C@@H](C)c1nc(C)sc1C(=O)N[C@@H](C)c1nc(CCCCN)sc1C(=O)N[C@@H](CCCCN)c1nc(C)sc1C(=O)N[C@@H](C)c1nc(CCCCN)sc1C(=O)N[C@@H](CCCCN)c1nc(C)sc1C(=O)N[C@@H](C)c1nc(C)sc1C(=O)N[C@@H](C)c1nc(C)sc1C(=O)N[C@@H](C)c1nc(CCCCN)sc1C(=O)N[C@@H](CCCCN)c1nc(C)sc1C(N)=O", "note": "[Oligomer 5]", "values": [
      {"measurement": "Minimal inhibitory concentration (MIC) B. subtilis ATCC6633", "setting": "[1]", "result": 0.8, "unit": "µM"},
      {"measurement": "Minimal inhibitory concentration (MIC) S. aureus ATCC6538", "setting": "[2]", "result": 100, "unit": "µM"},
      {"measurement": "Minimal inhibitory concentration (MIC) P. aeruginosa ATCC9027", "setting": "[3]", "result": 100, "unit": "µM"},
      {"measurement": "Minimal inhibitory concentration (MIC) E. coli ATCC8739", "setting": "[4]", "result": 5.2, "unit": "µM"},
      {"measurement": "Minimal inhibitory concentration (MIC) C. albicans ATCC10231", "setting": "[5]", "result": 50, "unit": "µM"},
      {"measurement": "Minimal inhibitory concentration (MIC) E. faecalis ATCC29121", "setting": "[6]", "result": ">150", "unit": "µM"},
      {"measurement": "HD10", "setting": "[7]", "result": 62.5, "unit": "µM"}
    ]},
    {"molecule": "CC(=O)N[C@@H](CCCNC(=N)N)c1nc(C)sc1C(=O)N[C@@H](C)c1nc(CCCNC(=N)N)sc1C(=O)N[C@@H](C)c1nc(C)sc1C(=O)N[C@@H](CCCNC(=N)N)c1nc(C)sc1C(=O)N[C@@H](C)c1nc(CCCNC(=N)N)sc1C(=O)N[C@@H](C)c1nc(C)sc1C(=O)N[C@@H](CCCNC(=N)N)c1nc(C)sc1C(=O)N[C@@H](C)c1nc(CCCNC(=N)N)sc1C(=O)N[C@@H](C)c1nc(C)sc1C(=O)N[C@@H](CCCNC(=N)N)c1nc(C)sc1C(=O)N[C@@H](C)c1nc(CCCNC(=N)N)sc1C(=O)N[C@@H](C)c1nc(C)sc1C(N)=O", "note": "[Oligomer 9]", "values": [
      {"measurement": "Minimal inhibitory concentration (MIC) B. subtilis ATCC6633", "setting": "[1]", "result": 0.6, "unit": "µM"},
      {"measurement": "Minimal bactericidal concentration (MBC) B. subtilis ATCC6633", "setting": "[1]; [10]", "result": "(0.8) μM"},
      {"measurement": "Minimal inhibitory concentration (MIC) S. aureus ATCC6538", "setting": "[2]", "result": 3.1, "unit": "µM"},
      {"measurement": "Minimal bactericidal concentration (MBC) S. aureus ATCC6538", "setting": "[2]; [10]", "result": "(7.8) μM"},
      {"measurement": "Minimal inhibitory concentration (MIC) P. aeruginosa ATCC9027", "setting": "[3]", "result": 4.2, "unit": "µM"},
      {"measurement": "Minimal bactericidal concentration (MBC) P. aeruginosa ATCC9027", "setting": "[3]; [10]", "result": "(4.7) μM"},
      {"measurement": "Minimal inhibitory concentration (MIC) E. coli ATCC8739", "setting": "[4]", "result": 1.8, "unit": "µM"},
      {"measurement": "Minimal bactericidal concentration (MBC) E. coli ATCC8739", "setting": "[4]; [10]", "result": "(2.3) μM"},
      {"measurement": "Minimal inhibitory concentration (MIC) C. albicans ATCC10231", "setting": "[5]", "result": 6.2, "unit": "µM"},
      {"measurement": "Minimal bactericidal concentration (MBC) C. albicans ATCC10231", "setting": "[5]; value in bracket, 48 h at 25° C.", "result": "(6.2) μM"},
      {"measurement": "Minimal inhibitory concentration (MIC) E. faecalis ATCC29121", "setting": "[6]", "result": 20.8, "unit": "µM"},
      {"measurement": "Minimal bactericidal concentration (MBC) E. faecalis ATCC29121", "setting": "[6]; [10]", "result": "(25) μM"},
      {"measurement": "HC50 at 1 h", "setting": "Hemolytic activity", "result": "> 100", "unit": "µM"},
      {"measurement": "average log reduction of the viable cell count", "setting": "E. coli [8]", "result": 0.95, "unit": "log10 cfu/ml"},
      {"measurement": "average log reduction of the viable cell count", "setting": "E. coli [8]; 8", "result": 4.73, "unit": "log10 cfu/ml"},
      {"measurement": "length of E. coli cells", "setting": "E. coli [9]", "result": "≥ 1.3", "unit": "μm"}
    ]}
  ]
}
